The record followed here is article PMC11605156, “Triterpenoids from Ganoderma lucidum inhibit cytochrome P450 enzymes interfering with the metabolic process of specific clinical drugs” (Frontiers in Pharmacology, 2024).

One series deals with CYP2C9 (Homo sapiens, UniProt P11712). The experiment in a line: CYP2C9 inhibition, probe/drug metabolism in human liver microsomes. The conditions noted are these: human, human liver microsomes, pH 7.4, probe diclofenac 4 μM, Residual activity (%) CYP2C9, HLM 0.5 mg/mL, diclofenac 4 μM, 30 min. As for the experimental part: (§1) The total volume of the in vitro metabolic incubation system is 200 μL. The probe substrate concentration in the system is shown in Supplementary Table S1. […] The reaction sample was preheated in a constant temperature mixer at 37°C. Then NADP^+ was added to the system to initiate the reaction. The reaction time is 30 min, and 100 μL acetonitrile will be added on time to quickly terminate the reaction, followed by centrifugation at 4°C and 20,000 g for 20 min. The supernatant was analyzed using liquid chromatography tandem mass spectrometry (LC-MS/MS), and the activity of CYP enzymes was evaluated by the generation of probe metabolites. The mass spectrometry information of probe substrates is shown in Supplementary Table S3.
(§2) The isolated triterpenoids (1–66) were used to establish a compounds library. The inhibitory effects of 66 triterpenoids from G. lucidum on seven subtypes of CYP enzymes (CYP1A2, 2A6, 2D6, 2B6, 2C9, 2C19, 3A4) were evaluated followed the above-mentioned experimental procedures.
(§3) For 16 clinical drugs metabolized by CYP enzymes, potential DDI studies were conducted on triterpenoids (6, 25) of G. lucidum, and IC50 values were measured.
(§4) Clinical drugs: Phenacetin, melatonin, clozapine and riluzole are metabolized by CYP1A2. Bupropion, artemisinin, efavirenz and sertraline are metabolized by CYP2B6. Diclofenac, valsartan, glimepiride and glibenclamide are metabolized by CYP2C9. Midazolam, imatinib, simvastatin and diltiazem are metabolized by CYP3A4.
(§5) Table S1. The information of probes for CYPs activity assay
(§6) Table S2. Information of clinical drugs

A further series has as its target T1, CYP2A6 (Homo sapiens, UniProt P11509).
T1 sequence (P11509 1-494): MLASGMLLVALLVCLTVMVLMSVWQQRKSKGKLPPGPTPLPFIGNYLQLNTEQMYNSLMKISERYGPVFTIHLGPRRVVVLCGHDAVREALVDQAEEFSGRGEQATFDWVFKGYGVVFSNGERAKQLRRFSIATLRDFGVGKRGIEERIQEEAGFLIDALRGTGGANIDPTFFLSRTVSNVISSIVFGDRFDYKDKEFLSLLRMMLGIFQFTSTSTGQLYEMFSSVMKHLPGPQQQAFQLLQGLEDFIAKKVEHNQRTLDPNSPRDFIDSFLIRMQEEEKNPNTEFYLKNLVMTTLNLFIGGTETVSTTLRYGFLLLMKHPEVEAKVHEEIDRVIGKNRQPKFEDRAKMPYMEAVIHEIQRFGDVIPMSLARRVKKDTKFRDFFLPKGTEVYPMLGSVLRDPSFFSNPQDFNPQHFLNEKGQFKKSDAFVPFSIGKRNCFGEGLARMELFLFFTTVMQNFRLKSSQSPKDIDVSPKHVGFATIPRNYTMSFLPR
The experiment in a line: CYP2A6 inhibition, coumarin probe in human liver microsomes. The conditions noted are these: human, human liver microsomes, pH 7.4, probe coumarin 2 μM, Residual activity (%) CYP2A6, HLM 0.5 mg/mL. As for the experimental part: as §1, §2, §5

The next series concerns the target T2, CYP2B6 (Homo sapiens, UniProt P20813).
T2 sequence (P20813 1-491): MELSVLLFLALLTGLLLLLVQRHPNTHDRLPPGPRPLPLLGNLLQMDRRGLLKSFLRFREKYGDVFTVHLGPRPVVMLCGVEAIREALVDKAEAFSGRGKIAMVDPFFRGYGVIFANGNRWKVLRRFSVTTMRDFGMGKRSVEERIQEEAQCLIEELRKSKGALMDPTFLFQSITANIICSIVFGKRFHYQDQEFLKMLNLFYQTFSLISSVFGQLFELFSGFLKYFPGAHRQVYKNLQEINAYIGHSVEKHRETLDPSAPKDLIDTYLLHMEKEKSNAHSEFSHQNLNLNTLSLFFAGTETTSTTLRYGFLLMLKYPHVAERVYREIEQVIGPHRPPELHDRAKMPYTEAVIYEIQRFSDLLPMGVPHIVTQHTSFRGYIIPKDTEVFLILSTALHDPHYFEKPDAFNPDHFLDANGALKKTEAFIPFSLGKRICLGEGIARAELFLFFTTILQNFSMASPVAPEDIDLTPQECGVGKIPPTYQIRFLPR
The experiment in a line: CYP2B6 inhibition, probe/drug metabolism in human liver microsomes. The note with it: human, human liver microsomes, pH 7.4, probe bupropion 75 μM, Residual activity (%) CYP2B6, HLM 0.5 mg/mL, bupropion 75 μM, 30 min. As for the experimental part:
as §1, §2, §3, §4, §5, §6
For orientation: Microsomes from liver hold many membrane-bound enzymes, among them those of drug oxidation.

A further series deals with CYP2C19 (Homo sapiens, UniProt P33261). The experiment in a line: CYP2C19 inhibition, S-mephenytoin probe in human liver microsomes. The note with it: human, human liver microsomes, pH 7.4, probe S-mephenytoin 50 μM, Residual activity (%) CYP2C19, HLM 0.5 mg/mL, S-mephenytoin 50 μM, 30 min. The method, then:
as §1, §2, §5

A further series addresses CYP2D6 (Homo sapiens, UniProt P10635). The experiment in a line: CYP2D6 inhibition, dextromethorphan probe in human liver microsomes. The note with it: human, human liver microsomes, pH 7.4, probe dextromethorphan 5 μM, Residual activity (%) CYP2D6, HLM 0.5 mg/mL. As for the experimental part: as §1, §2, §5
The target of a further series is T3, CYP1A2 (Homo sapiens, UniProt P05177).
T3 sequence (P05177 1-516): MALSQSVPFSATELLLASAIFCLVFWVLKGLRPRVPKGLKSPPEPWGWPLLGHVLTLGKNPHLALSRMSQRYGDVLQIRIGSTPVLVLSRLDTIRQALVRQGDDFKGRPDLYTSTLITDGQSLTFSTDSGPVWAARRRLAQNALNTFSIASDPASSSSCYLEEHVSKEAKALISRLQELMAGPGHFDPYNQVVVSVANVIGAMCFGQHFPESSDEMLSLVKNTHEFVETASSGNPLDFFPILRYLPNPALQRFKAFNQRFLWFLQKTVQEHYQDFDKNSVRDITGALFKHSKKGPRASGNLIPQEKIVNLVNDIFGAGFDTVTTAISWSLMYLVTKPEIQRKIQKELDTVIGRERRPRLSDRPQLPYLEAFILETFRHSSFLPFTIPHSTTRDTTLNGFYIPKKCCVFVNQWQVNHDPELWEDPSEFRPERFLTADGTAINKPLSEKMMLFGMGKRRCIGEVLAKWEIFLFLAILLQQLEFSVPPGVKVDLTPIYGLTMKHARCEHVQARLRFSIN
The experiment in a line: CYP1A2 inhibition, probe/drug metabolism in human liver microsomes (LC-MS/MS). The conditions noted are these: for activity at 30 min: Residual activity (%) CYP1A2, HLM 0.5 mg/mL, phenacetin 40 μM. The method, then:
as §1, §2, §3, §4, §5, §6

A further series addresses CYP3A4 (Homo sapiens, UniProt P08684). Nature of the series: CYP3A4 inhibition, probe/drug metabolism in human liver microsomes. The note with it: human, human liver microsomes, pH 7.4, probe midazolam 5 μM, Residual activity (%) CYP3A4, HLM 0.5 mg/mL, midazolam 5 μM, 30 min. The method, then:
as §1, §2, §3, §4, §5, §6

Setting [1] is: IC50 against CYP 1A2, substrate phenacetin 40 μM, HLM.
Setting [2] is: human, human liver microsomes, pH 7.4, probe phenacetin 40 μM.

Chain of CYP2C19 (P33261 whole entry): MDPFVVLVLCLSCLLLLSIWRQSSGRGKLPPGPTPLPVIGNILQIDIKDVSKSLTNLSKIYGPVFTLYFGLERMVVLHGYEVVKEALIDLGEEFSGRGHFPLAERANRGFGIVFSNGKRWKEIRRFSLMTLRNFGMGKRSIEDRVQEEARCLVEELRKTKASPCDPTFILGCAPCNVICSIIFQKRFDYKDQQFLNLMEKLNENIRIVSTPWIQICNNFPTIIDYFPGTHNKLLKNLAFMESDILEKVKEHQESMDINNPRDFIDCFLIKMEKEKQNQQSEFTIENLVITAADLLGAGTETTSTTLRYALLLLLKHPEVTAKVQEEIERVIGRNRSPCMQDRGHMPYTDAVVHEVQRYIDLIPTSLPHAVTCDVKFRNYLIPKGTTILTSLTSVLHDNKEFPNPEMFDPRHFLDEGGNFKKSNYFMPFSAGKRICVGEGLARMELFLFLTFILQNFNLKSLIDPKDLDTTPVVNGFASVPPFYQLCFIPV
Chain of CYP3A4 (P08684 whole entry): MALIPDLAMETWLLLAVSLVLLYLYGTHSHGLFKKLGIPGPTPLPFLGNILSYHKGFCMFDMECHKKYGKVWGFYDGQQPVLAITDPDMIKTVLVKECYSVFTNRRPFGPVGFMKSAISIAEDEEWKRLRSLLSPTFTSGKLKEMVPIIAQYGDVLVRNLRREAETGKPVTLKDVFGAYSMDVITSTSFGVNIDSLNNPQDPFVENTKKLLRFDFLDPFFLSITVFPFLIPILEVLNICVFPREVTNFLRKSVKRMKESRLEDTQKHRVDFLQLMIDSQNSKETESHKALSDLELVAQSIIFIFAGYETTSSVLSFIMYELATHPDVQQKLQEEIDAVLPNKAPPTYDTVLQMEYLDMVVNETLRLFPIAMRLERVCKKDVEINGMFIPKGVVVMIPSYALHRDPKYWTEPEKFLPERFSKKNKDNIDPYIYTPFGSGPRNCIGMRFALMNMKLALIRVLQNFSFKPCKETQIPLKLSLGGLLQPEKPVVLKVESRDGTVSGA
Chain of CYP2C9 (P11712 whole entry): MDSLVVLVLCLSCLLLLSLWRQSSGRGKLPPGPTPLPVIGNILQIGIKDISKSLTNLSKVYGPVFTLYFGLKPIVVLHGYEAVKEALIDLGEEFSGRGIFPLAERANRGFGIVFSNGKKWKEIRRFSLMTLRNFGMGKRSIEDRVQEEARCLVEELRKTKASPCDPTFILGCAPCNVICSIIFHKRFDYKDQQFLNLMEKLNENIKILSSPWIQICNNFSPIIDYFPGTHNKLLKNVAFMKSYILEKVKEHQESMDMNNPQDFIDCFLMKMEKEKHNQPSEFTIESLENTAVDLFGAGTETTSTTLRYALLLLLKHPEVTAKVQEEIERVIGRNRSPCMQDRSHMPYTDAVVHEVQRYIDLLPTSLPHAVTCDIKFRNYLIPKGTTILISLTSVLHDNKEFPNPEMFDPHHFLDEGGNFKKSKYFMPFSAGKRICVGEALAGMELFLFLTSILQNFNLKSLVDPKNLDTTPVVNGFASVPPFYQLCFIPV
Chain of CYP2D6 (P10635 whole entry): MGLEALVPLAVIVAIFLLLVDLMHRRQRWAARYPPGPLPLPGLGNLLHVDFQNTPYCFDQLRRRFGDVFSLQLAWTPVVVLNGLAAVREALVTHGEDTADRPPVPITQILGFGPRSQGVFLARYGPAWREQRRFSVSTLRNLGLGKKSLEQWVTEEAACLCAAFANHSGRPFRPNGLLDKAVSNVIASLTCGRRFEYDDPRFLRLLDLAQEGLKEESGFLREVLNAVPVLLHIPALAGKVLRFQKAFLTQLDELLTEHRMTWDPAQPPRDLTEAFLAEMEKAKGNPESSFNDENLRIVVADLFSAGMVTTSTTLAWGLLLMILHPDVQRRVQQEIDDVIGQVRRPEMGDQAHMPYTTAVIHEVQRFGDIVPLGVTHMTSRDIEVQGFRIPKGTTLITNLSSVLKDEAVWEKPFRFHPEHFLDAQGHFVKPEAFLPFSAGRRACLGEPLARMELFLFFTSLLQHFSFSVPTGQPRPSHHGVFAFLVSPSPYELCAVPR

With `CC(=CC(=O)CC(C)C(=O)O)C1CC(=O)C2(C)C3=C(C(=O)C(O)C12C)C1(C)CCC(O)C(C)(C)C1CC3=O` (centres unmarked) [Compound 17], the activity at 30 min at CYP2C9 was determined as 90 ± 1.36%; on CYP2A6, 91.89 ± 0.88%; on CYP2B6, 76.6 ± 7.68%; at CYP2C19, 85.5 ± 2.57%; at CYP2D6, 99.4 ± 3.9%; at CYP1A2 (setting [2]), 54.4 ± 8.91%. Moreover, the activity at 30 min on CYP3A4 amounted to 97.6 ± 2.29%. In addition, the IC50 (commonly the point on the concentration scale where inhibition reaches its midpoint) on CYP1A2 (setting [1]) came to 21.8 ± 1.15 µM.
Turning to `CC(=O)OC1C(=O)C2=C(C(=O)CC3C(C)(C)C(=O)CCC23C)C2(C)C(=O)CC(C(C)CC(O)C=C(C)C(=O)O)C12C` (centres unmarked) [Compound 31], the activity at 30 min on CYP2C9 turned out to be 80.99 ± 0.51%; on CYP2A6 it was 86.17 ± 0.44%; at CYP2B6, 71.2 ± 4.24%; at CYP2C19 it was 94.8 ± 4.46%; on CYP2D6, 103 ± 3.3%; on CYP1A2 (setting [2]), 53.7 ± 1.44%. In addition, on CYP3A4, the activity at 30 min is 104 ± 1.72%. For the same compound, at CYP1A2 (human, human liver microsomes, pH 7.4, probe phenacetin 40 μM, IC50 against CYP 1A2, substrate phenacetin 40 μM, HLM), it took 29 ± 6.91 µM to reach half-maximal inhibition (IC50 at 30 min).
Regarding `CC1(C)CCC2(C(=O)O)CCC3(C)C(=C2C1)C=CC1C2(C)CCC(O)C(C)(C)C2CCC13C` (centres unmarked) [Compound 36], the activity at 30 min on CYP2C9 came to 82.9 ± 2.75%; at CYP2A6, 87 ± 1.46%; on CYP2B6, 88.6 ± 6.9%; at CYP2C19, 84.38 ± 0.53%; at CYP2D6 it was 72.7 ± 10.4%; on CYP1A2 (setting [2]) it was 81.9 ± 5.81%. Moreover, the activity at 30 min at CYP3A4 worked out at 55.4 ± 1.19%.
Regarding `CC1(C)CCC2(C(=O)O)CCC3(C)C(=CC(=O)C4C5(C)CCC(O)C(C)(C)C5CCC43C)C2C1` (centres unmarked) [Compound 37], the activity at 30 min at CYP2C9 worked out at 94.8 ± 3.33%; at CYP2A6, 104 ± 1.4%; at CYP2B6, 94.3 ± 3.45%; on CYP2C19, 97.6 ± 4.86%; on CYP2D6, 104 ± 3.22%; at CYP1A2 (setting [2]) it was 88 ± 3.49%. Further, at CYP3A4, the activity at 30 min was determined as 60.1 ± 3.57%.
As to `CC(CC(=O)CC(C)C1CC(O)C2(C)C3=C(C(=O)CC12C)C1(C)CCC(=O)C(C)(C)C1CC3)C(=O)O` (centres unmarked) [Compound 42], the activity at 30 min is 62.8 ± 2.72% at CYP2C9; 83.7 ± 8.67% on CYP2A6; 89.1 ± 3.71% at CYP2B6; 79.3 ± 0.38% on CYP2C19; 103 ± 3.3% on CYP2D6; 43.8 ± 4.18% at CYP1A2 (setting [2]). Also, the activity at 30 min at CYP3A4 came to 96.8 ± 4.2%. The IC50 on CYP1A2 (setting [1]) is 21.4 ± 5.21 µM.
